Assay results taken from patent publication US5583224A, “Isolation and elucidation of cephalostatin 7, 8 and 9” (Arizona Board of Regents acting on behalf of Arizona State …, priority 1993, dated 1996).

Tests used:
[1] = tested on: panel of 60 human tumor cell lines; test: NCI standard human tumor cell line panel (60 cell lines); type: cell-based; conditions: for activity against human cancer cell lines: panel of human cancer cell lines employed by NCI
Description: Current research in the control of cancer in the United States is coordinated by the National Cancer Institute (NCI). To determine whether a substance has anti-cancer properties, the NCI has established a systematic protocol. […] The protocol, and the established statistical means for analyzing the results obtained by the standardized testing are fully described in the literature. See: Boyd, Dr. Michael R., Principles & Practice of Oncology, PPO Updates, Volume 3, Number 10, Oct. 1989, for an in depth description of the testing protocol; and Paull, K. D., "Display and Analysis of Patterns of Differential Activity of Drugs Against Human Tumor Cell Lines; Development of Mean Graph and COMPARE Algorithm", Journal of the National Cancer Institute Reports, Vol. 81, No. 14, Page 1088, Jul. 14, 1989 for a description of the methods of statistical analysis. Both of these references are incorporated herein by this reference thereto.

[2] = tested on: P388 lymphocytic leukemia cell line; test: P388 lymphocytic leukemia (PS) cell line growth inhibition in vitro; type: cell-based, murine
[3] = tested on: P388 lymphocytic leukemia cell line; conditions: first chemical study, Pettit et al., J. Am. Chem. Soc 1988; cited from earlier work

| Compound | activity against other NCI cell lines ([1]; other NCI cell lines) | activity against human cancer cell lines [1] | activity against human cancer cell lines ([1]; listed as cephalostatin 9) | activity against murine P388 lymphocytic leukemia (PS system) [2] | P388 ED50 [3] |
| --- | --- | --- | --- | --- | --- |
| CC1[C@@H]2CC=C3C4CCC5Cc6nc7c(nc6C[C@@]5(C)C4CC(=O)[C@]32CO[C@@]1(O)C(O)CC(C)(C)O)CC1CCC2C3=C[C@H]4O[C@@]5(O[C@@](C)(CO)C[C@@H]5O)C(C)[C@@]4(O)[C@]3(C)[C@@H](O)CC2[C@]1(C)C7 (some centres unmarked) [Cephalostatin 9] | confirmed active level | powerful inhibitors of various human tumor cell lines | very strong and selective activity | confirmed active level |  |
| C[C@@H]1[C@]2(O[C@H]3C=C4[C@@H]5CC[C@H]6Cc7nc8c(nc7C[C@]6(C)[C@H]5C[C@@H](O)[C@]4(C)[C@]31O)C[C@@H]1CC[C@H]3C4=CC[C@@H]5[C@H](C)[C@@]6(OC[C@]45C(=O)C[C@@H]3[C@@]1(C)C8)OC(C)(C)C[C@H]6O)O[C@](C)(CO)C[C@H]2O [cephalostatin 1] |  |  |  |  | 10^-7 to 10^-9 μg/mL |
